In patent US7960427B2, “5-hydroxyindole-3-carboxylate derivatives and uses thereof” (priority 2004, dated 2011):
pIC50: −log10 of the molar value. In brackets after ≈: the same amount, converted by molar mass.

Key:
[1] = test system: 2.2.15 cells; assay: Cytotoxicity (TC50) in 2.2.15 cells; format: cell-based
Procedure: (§1) All compounds were evaluated for their anti-HBV activities, namely the ability to inhibit the replication of HBV DNA and the production of HBsAg and HBeAg in HBV-infected 2.2.15 cells.
(§2) The samples were dissolved in DMSO for appropriate concentrations, and then each was diluted 3-fold with culture medium. The 2.2.15 cells were planted into 96-well culture plates. […] The culture supernatants and 2.2.15 cells were collected respectively on the 8th plant day. The secretion concentrations of HBsAg and HBeAg in the culture supernatants were measured by RIA on SPRIA Kit for Detection of HBsAg and HBeAg (Beijing North Institute of Biological Technology), and the replication of HBV DNA was measured by dot hybridization with a^32PdCTP (FuRui Biological Technology Ltd., China).

[2] = test system: HBV DNA; assay: In vitro anti-HBV activity: replication of HBV DNA in 2.2.15 cells (dot hybridization); format: cell-based, Hepatitis B virus (HBV); conditions: for IC50: Hepatitis B virus, read-out: DNA replication IC50; for DNA replication SI: selectivity index
Procedure: as §1, §2

[3] = biological target: T1, HIV-1 protease (Human immunodeficiency virus type 1 group M subtype B, UniProt P04585); assay: Anti-HIV-1 protease activity (fluorescence labeled substrate); format: biochemical; conditions: for inhibition ratio at 0.5 ug/ml: sample concentration 0.5 ug/ml; for inhibition ratio at 2.0 ug/ml: sample concentration 2.0 ug/ml; for inhibition ratio at 10 ug/ml: sample concentration 10 ug/ml; for inhibition ratio at 50 ug/ml: sample concentration 50 ug/ml; for inhibition ratio at 250 ug/ml: sample concentration 250 ug/ml
T1 construct: The genetically engineered target enzyme (HIV-1 protease, preserved at −85° C.)
Procedure: HIV-1 protease can cut the fluorescence labeled substrate under optimal condition and reaction system, so the activity of enzyme is determined by the fluorescence in the product of enzymatic reaction. The samples are added into the reaction system to observe the inhibitive effect on the enzyme.
The samples and the reference drug Indinavir ([…].) were dissolved in DMSO or redistilled water for appropriate concentration. Each was diluted 5-fold and then added into the buffer containing fluorescence labeled substrate (MP Co.). The genetically engineered target enzyme (HIV-1 protease, preserved at −85° C.) was added to the buffer and incubated under the optimal reaction condition. The fluorescence was determined by FLUO star Galaxy fluorometer.

Row | Compound | TC50 [1] [µg/mL] | IC50 [2] [µg/mL] | DNA replication SI [2] | pIC50 [3] | inhibition ratio at 0.5 ug/ml [3] | inhibition ratio at 2.0 ug/ml [3] | inhibition ratio at 10 ug/ml [3] | inhibition ratio at 50 ug/ml [3] | inhibition ratio at 250 ug/ml [3]
1 | Nc1ccn([C@@H]2CS[C@H](CO)O2)c(=O)n1 [Example 3TC, Lamivudine, reference compound] | 1600 (≈ 6980 µM) | 228 (≈ 994 µM) |  |  |  |  |  |  | 
2 | CCOC(=O)c1c(C[S+]([O-])c2cccc(Cl)c2)n(C)c2cc(Br)c(O)c(CN3CCOCC3)c12 (centres unmarked) [Example 59, Ethyl 6-bromo-5-hydroxy-1-methyl-4-(morpholinomethyl)-2-[(3-chlorophenyl)sulfinylmethyl]-1H-indole-3-carboxylate] | 288.68 (≈ 507 µM) | 26.6 (≈ 46.7 µM) | 10.8 |  |  |  |  |  | 
3 | CCOC(=O)c1c(C[S+]([O-])Cc2ccc(F)cc2)n(C)c2cc(Br)c(O)c(CN3CCOCC3)c12.Cl (centres unmarked) [Example 64, Ethyl 6-bromo-5-hydroxy-1-methyl-4-(morpholinomethyl)-2-[(4-fluorobenzyl)sulfinylmethyl]-1H-indole-3-carboxylate hydrochloride] | 24.69 | 0.76 | 32.48 |  |  |  |  |  | 
4 | CCOC(=O)c1c(C[S+]([O-])Cc2ccoc2)n(C)c2ccc(O)c(CN3CCCCC3)c12.Cl (centres unmarked) [Example 77, Ethyl 5-hydroxy-1-methyl-4-(piperidinomethyl)-2-[(3-furylmethyl)sulfinylmethyl]-1H-indole-3-carboxylate hydrochloride] | 74.07 | 18.1 | 4.09 |  |  |  |  |  | 
5 | CCOC(=O)c1c(C[S+]([O-])Cc2ccc(F)cc2)n(C)c2cc(Br)c(O)c(CN(C)C)c12 (centres unmarked) [Example 80, Ethyl 6-bromo-4-[(dimethylamino)methyl]-5-hydroxy-1-methyl-2-[(4-fluorobenzyl)sulfinylmethyl]-1H-indole-3-carboxylate] | <0.91 | 0.27 (≈ 0.514 µM) | 3.37 |  |  |  |  |  | 
6 | CCOC(=O)c1c(C[S+]([O-])Cc2cccc(F)c2)n(C)c2cc(Br)c(O)c(CN(C)C)c12 (centres unmarked) [Example 81, Ethyl 6-bromo-4-[(dimethylamino)methyl]-5-hydroxy-1-methyl-2-[(3-fluorobenzyl)sulfinylmethyl]-1H-indole-3-carboxylate] | 35.61 (≈ 67.8 µM) | 0.715 (≈ 1.36 µM) | 49.8 |  |  |  |  |  | 
7 | CCOC(=O)c1c(CS(=O)(=O)Cc2ccc(F)cc2)n(C)c2cc(Br)c(O)c(CN3CCCC3)c12 [Example 84, Ethyl 6-bromo-5-hydroxy-1-methyl-4-(1-pyrrolidinylmethyl)-2-[(4-fluorobenzyl)sulfonylmethyl]-1H-indole-3-carboxylate] | 24.69 (≈ 43.5 µM) | 0.58 (≈ 1.02 µM) | 42.57 |  |  |  |  |  | 
8 | CCOC(=O)c1c(CS(=O)(=O)Cc2ccco2)n(C2CC2)c2ccc(O)c(CN3CCCC3)c12 [Example 85] | 14.26 (≈ 29.3 µM) | 1.52 (≈ 3.12 µM) | 9.38 |  |  |  |  |  | 
9 | CCOC(=O)c1c(C[S+]([O-])Cc2ccc(F)cc2)n(C)c2cc(Br)c(O)c(CN3CCCCC3)c12 (centres unmarked) [Example 86, Ethyl 6-bromo-5-hydroxy-1-methyl-4-(piperidinomethyl)-2-[(4-fluorobenzyl)sulfinylmethyl]-1H-indole-3-carboxylate] | 7.13 (≈ 12.6 µM) | 0.64 (≈ 1.13 µM) | 11.14 |  |  |  |  |  | 
10 | CCOC(=O)c1c(C[S+]([O-])Cc2cccc(F)c2)n(C)c2cc(Br)c(O)c(CN3CCOCC3)c12 (centres unmarked) [Example 87, Ethyl 6-bromo-5-hydroxy-1-methyl-4-(morpholinomethyl)-2-[(3-fluorobenzyl)sulfinylmethyl]-1H-indole-3-carboxylate] | 21.39 (≈ 37.7 µM) | 0.53 (≈ 0.934 µM) | 40.35 |  |  |  |  |  | 
11 | CCOC(=O)c1c(C[S+]([O-])c2ccc(F)cc2)n(C2CC2)c2cc(Br)c(O)c(Cn3ccnc3)c12 (centres unmarked) [Example 117, Ethyl 6-bromo-1-cyclopropyl-5-hydroxy-4-[(1-imidazoly)methyl]-2-[(4-fluorophenyl)sulfinylmethyl]-1H-indole-3-carboxylate] | 55.56 (≈ 99.1 µM) | 11.4 (≈ 20.3 µM) | 4.87 |  |  |  |  |  | 
12 | CCOC(=O)c1c(C[S+]([O-])c2ccc(F)c(F)c2)n(C2CC2)c2cc(Br)c(O)c(Cn3ccnc3)c12 (centres unmarked) [Example 119, Ethyl 6-bromo-1-cyclopropyl-5-hydroxy-4-[(1-imidazolyl)methyl]-2-[(3,4-difluorophenyl)sulfinylmethyl]-1H-indole-3-carboxylate] | 21.11 (≈ 36.5 µM) | 3.6 (≈ 6.22 µM) | 5.8 |  |  |  |  |  | 
13 | CCOC(=O)c1c(C[S+]([O-])c2ccccc2F)n(C)c2cc(Br)c(O)c(Cn3ccnc3)c12 (centres unmarked) [Example 125, Ethyl 6-bromo-5-hydroxy-4-[(1-imidazolyl)methyl]-1-methyl-2-[(2-fluorophenyl)sulfinylmethyl]-1H-indole-3-carboxylate] | 48.1 (≈ 90 µM) | 8.76 (≈ 16.4 µM) | 5.49 |  |  |  |  |  | 
14 | CCOC(=O)c1c(C[S+]([O-])Cc2ccco2)n(C2CC2)c2cc(Br)c(O)c(Cn3ccnc3)c12 (centres unmarked) [Example 130, Ethyl 6-bromo-1-cyclopropyl-5-hydroxy-4-[(1-imidazolyl)methyl]-2-[(2-furylmethyl)sulfinylmethyl]-1H-indole-3-carboxylate] | 24.69 (≈ 45.2 µM) | 5.94 (≈ 10.9 µM) | 4.16 |  |  |  |  |  | 
15 | CCOC(=O)c1c(C[S+]([O-])c2ccccc2)n(C)c2cc(Br)c(O)c(Cn3ccnc3C)c12 (centres unmarked) [Example 131, Ethyl 6-bromo-5-hydroxy-1-methyl-4-[(2-methyl-1-imidazolyl)methyl]-2-(phenylsulfinylmethyl)-1H-indole-3-carboxylate] |  |  |  | 3.53 | 4.6 | 14.6 | 7.1 | 7.7 | 55.1
16 | CCOC(=O)c1c(C[S+]([O-])c2ccc(F)c(F)c2)n(C)c2cc(Br)c(O)c(Cn3ccnc3C)c12.Cl (centres unmarked) [Example 133, Ethyl 6-bromo-5-hydroxy-1-methyl-4-[(2-methyl-1-imidazolyl)methyl]-2-[(3,4-difluorophenyl)sulfinylmethyl]-1H-indole-3-carboxylate hydrochloride] | 40.0 | 6.37 | 6.28 |  |  |  |  |  | 
17 | CCOC(=O)c1c(C[S+]([O-])c2cccc(C)c2)n(C)c2cc(Br)c(O)c(Cn3ccnc3C)c12 (centres unmarked) [Example 134, Ethyl 6-bromo-5-hydroxy-1-methyl-4-[(2-methyl-1-imidazolyl)methyl]-2-[(3-methylphenyl)sulfinylmethyl]-1H-indole-3-carboxylate] | 53.42 (≈ 98.1 µM) | 3.8 (≈ 6.98 µM) | 19.1 |  |  |  |  |  | 
18 | CCOC(=O)c1c(C[S+]([O-])c2ccccc2OC)n(C)c2cc(Br)c(O)c(Cn3ccnc3C)c12.Cl (centres unmarked) [Example 135, Ethyl 6-bromo-5-hydroxy-1-methyl-4-[(2-methyl-1-imidazolyl)methyl]-2-[(2-methoxyphenyl)sulfinylmethyl]-1H-indole-3-carboxylate hydrochloride] | 53.42 | 2.4 | 22.3 |  |  |  |  |  | 
19 | CCOC(=O)c1c(C[S+]([O-])c2c(Cl)cccc2Cl)n(C2CC2)c2cc(Br)c(O)c(Cn3ccnc3C)c12 (centres unmarked) [Example 137, Ethyl 6-bromo-1-cyclopropyl-5-hydroxy-4-[(2-methyl-1-imidazolyl)methyl]-2-[(2,6-dichlorophenyl)sulfinylmethyl]-1H-indole-3-carboxylate] | 160.2 (≈ 256 µM) | 35.5 (≈ 56.7 µM) | 4.51 |  |  |  |  |  | 
20 | CCOC(=O)c1c(C[S+]([O-])c2ccc(C)cc2)n(C)c2ccc(O)c(Cn3ccnc3C)c12 (centres unmarked) [Example 142, Ethyl 5-hydroxy-1-methyl-4-[(2-methyl-1-imidazolyl)methyl]-2-[(4-methylphenyl)sulfinylmethyl]-1H-indole-3-carboxylate] | 106.83 (≈ 229 µM) | 23.8 (≈ 51.1 µM) | 4.49 |  |  |  |  |  | 
21 | CCOC(=O)c1c(C[S+]([O-])c2ccccc2)n(C)c2cc(Br)c(O)c(Cn3cncn3)c12 (centres unmarked) [Example 146, Ethyl 6-bromo-5-hydroxy-1-methyl-4-[(1H-1,2,4-triazol-1-yl)methyl]-2-(phenylsulfinylmethyl)-1H-indole-3-carboxylate] | 40.0 (≈ 77.3 µM) | 13.1 (≈ 25.3 µM) | 3.06 |  |  |  |  |  | 
22 | CCOC(=O)c1c(C[S+]([O-])c2ccccc2OC)n(C)c2cc(Br)c(O)c(CNC(=N)N)c12.Cl (centres unmarked) [Example 151, Ethyl 6-bromo-4-(guanidinylmethyl)-5-hydroxy-1-methyl-2-[(2-methoxyphenyl)-sulfinylmethyl]-1H-indole-3-carboxylate hydrochloride] | 64.15 | 1.8 | 35.6 |  |  |  |  |  | 
23 | CCOC(=O)c1c(CS(=O)(=O)c2ccc(F)c(F)c2)n(C2CC2)c2cc(Br)c(O)c(Cn3ccnc3)c12 [Example 160, Ethyl 6-bromo-1-cyclopropyl-5-hydroxy-4-[(1-imidazolyl)methyl]-2-[(3,4-difluorophenyl)sulfonylmethyl]-1H-indole-3-carboxylate] |  |  |  | 4.67 | 6.1 | 11.7 | 29.1 | 71.8 | 97.8
